Laboratory results from US10793525B2, “13-cis-RAMBA retinamides that degrade MNKs for treating cancer” (UNIVERSITY OF MARYLAND, BALTIMORE, priority 2014, dated 2020).
Like-named read-outs stand apart in the source and are kept apart here.

Assays:
[1] = test system: MDA-MB-468 human breast cancer cells; test: MTT cell proliferation assay, MDA-MB-468; format: cell-based; conditions: MDA-MB-468 cells, SEM < 10%, read-out: GI50s MDA-MB-468
From the text: (§1) MCF-7, MDA-MB-231, MDA-MB-468 and SKBR-3 human breast cancer cells and LNCaP, PC-3, and CWR22Rv1 human prostate carcinoma cells (American Type Culture Collection, Manassas, Va., USA) were maintained in RPMI 1640 media (Gibco-Life Technologies, Grand Island, N.Y., USA) supplemented with 10% fetal bovine serum and 1% penicillin/streptomycin. Western blotting was done as mentioned previously,^8, 13b using the following antibodies: AR, Bad, Bax, Bcl-2, eIF4E, Mnk1, Mnk-2, N-cadherin, PARP, peIF4E^ser209 purchased from Cell Signaling Technology, Danvers, Mass., USA. Anti-Mnk2 was purchased from Sigma-Aldrich and normal rabbit IgG, cyclin D1 was from Santa Cruz Biotechnology, CA, USA.
(§2) Cells were plated (2500 cells/well) in 96 well plates and treated with or without specified compounds as described previously.^8a, 12b
(§3) The clinically relevant retinoids, ATRA and 4-HPR and the Mnk inhibitor, cercosporamide were used as comparators in the assays.

[2] = test system: MDA-MB-231 human breast cancer cells; test: MTT cell proliferation assay, MDA-MB-231; format: cell-based; conditions: MDA-MB-231 cells, SEM < 10%, read-out: GI50s MDA-MB-231
From the text: as §1, §2, §3

[3] = test system: SKBR-3 human breast cancer cells; test: MTT cell proliferation assay, SKBR-3; format: cell-based; conditions: SK-BR-3, SKBR-3 cells, SEM < 10%, read-out: GI50s SKBR-3
From the text: as §1, §2, §3

[4] = test system: MCF-7 human breast cancer cells; test: MTT cell proliferation assay, MCF-7; format: cell-based; conditions: MCF-7 cells; for IC50: Homo sapiens, MCF7, MTT, SEM < 10%, read-out: GI50s MCF-7
From the text: as §1, §2, §3

[5] = test system: PC-3 human prostate carcinoma cells; test: MTT cell proliferation assay, PC-3; format: cell-based; conditions: PC-3 cells, SEM < 10%, read-out: GI50s PC-3
From the text: as §1, §2, §3
(§4) The PC-3 cell line was the least sensitive to all the compounds tested.

[6] = test system: LNCaP human prostate carcinoma cells; test: MTT cell proliferation assay, LNCaP; format: cell-based; conditions: SEM < 10%, read-out: GI50s LNCaP
From the text: as §1, §2, §3, §4

[7] = test system: CWR22Rv1 human prostate carcinoma cells; test: MTT cell proliferation assay, CWR22Rv1; format: cell-based; conditions: SEM < 10%, read-out: GI50s CWR22Rv1
From the text: as §1, §2, §3, §4

[8] = test system: CWR22Rv1 human prostate carcinoma cells; conditions: previously reported in Ramamurthy V et al., read-out: GI50s CWR22Rv1; cited from earlier work
[9] = test system: PC-3 human prostate carcinoma cells; conditions: PC-3 cells; previously reported in Ramamurthy V et al.; read-out: GI50s PC-3; cited from earlier work
[10] = test system: LNCaP human prostate carcinoma cells; conditions: previously reported in Ramamurthy V et al., read-out: GI50s LNCaP; cited from earlier work
[11] = test system: MCF-7, MDA-MB-231, MDA-MB-468 and SKBR-3 human breast cancer cells; test: MTT cell proliferation assay, four breast cancer cell lines together; format: cell-based; conditions: range across the four BC cell lines, read-out: GI50s, range over the BC cell lines
From the text: as §1, §2, §3

| Compound | IC50 [1] | melting point | IC50 [2] | IC50 [3] | IC50 [4] | IC50 [5] | IC50 [6] | IC50 [7] | fold more potent than Compound 16 (GI50, MCF-7) ([4]; versus Compound 16) | IC50 [11] | IC50 [8] | IC50 [9] | IC50 [10] |
| --- | --- | --- | --- | --- | --- | --- | --- | --- | --- | --- | --- | --- | --- |
| CC1=C(/C=C/C(C)=C/C=C/C(C)=C\C(=O)NCCc2ccc(O)cc2)C(C)(C)CC=C1c1cccnc1 [Compound 37, (2Z,4E,6E,8E)-N-(4-hydroxyphenethyl)-3,7-dimethyl-9-(2,6,6-trimethyl-3-(pyridin-3-yl)cyclohexa-1,3-dien-1-yl)nona-2,4,6,8-tetraenamide] | 50.1 µM | 110 to 112 °C | 26.9 µM | 42.2 µM | 8.75 µM |  |  |  |  |  |  |  |  |
| CC1=C(/C=C/C(C)=C/C=C/C(C)=C\C(=O)NCCc2ccc(O)cc2)C(C)(C)CCC1n1ccnc1 (stereo not drawn) [Compound 25, (2Z,4E,6E,8E)-9-(3-(1H-imidazol-1-yl)-2,6,6-trimethylcyclohex-1-en-1-yl)-N-(4-hydroxyphenethyl)-3,7-dimethylnona-2,4,6,8-tetraenamide] | 13.5 µM | 126 to 128 °C | 2.88 µM | 1.41 µM | 1.9 µM |  |  |  |  |  |  |  |  |
| CC1=C(/C=C/C(C)=C/C=C/C(C)=C\C(=O)Nc2ccccc2)C(C)(C)CC=C1c1cccnc1 [Compound 35, (2Z,4E,6E,8E)-3,7-dimethyl-N-phenyl-9-(2,6,6-trimethyl-3-(pyridin-3-yl)cyclohexa-1,3-dien-1-yl)nona-2,4,6,8-tetraenamide] | 39.8 µM |  | 25.1 µM | 47.4 µM | 8.32 µM |  |  |  |  |  |  |  |  |
| CC1=C(/C=C/C(C)=C/C=C/C(C)=C\C(=O)NCc2ccc(O)cc2)C(C)(C)CC=C1c1cncnc1 [Compound 39, (2Z,4E,6E,8E)-N-(4-hydroxybenzyl)-3,7-dimethyl-9-(2,6,6-trimethyl-3-(pyrimidin-5-yl)cyclohexa-1,3-dien-1-yl)nona-2,4,6,8-tetraenamide] | 19.1 µM | 145 to 147 °C | 11.5 µM | 11.5 µM | 4.96 µM |  |  |  |  |  |  |  |  |
| CC(O)(CS(=O)(=O)c1ccc(F)cc1)C(=O)Nc1ccc(C#N)c(C(F)(F)F)c1 (stereo not drawn) [Casodex] |  |  |  |  |  |  |  |  |  |  | 3.81 µM | 9.15 µM | 2.61 µM |
| CC1=C(/C=C/C(C)=C/C=C/C(C)=C\C(=O)NCCc2ccc(O)cc2)C(C)(C)CC=C1c1cncnc1 [Compound 40, (2Z,4E,6E,8E)-N-(4-hydroxyphenethyl)-3,7-dimethyl-9-(2,6,6-trimethyl-3-(pyrimidin-5-yl)cyclohexa-1,3-dien-1-yl)nona-2,4,6,8-tetraenamide] | 23.4 µM | 115 to 117 °C | 14.5 µM | 24 µM | 2.96 µM |  |  |  |  |  |  |  |  |
| CC1=C(/C=C/C(C)=C/C=C/C(C)=C\C(=O)NCc2ccc(O)cc2)C(C)(C)CC=C1c1cccnc1 [Compound 36, (2Z,4E,6E,8E)-N-(4-hydroxybenzyl)-3,7-dimethyl-9-(2,6,6-trimethyl-3-(pyridin-3-yl)cyclohexa-1,3-dien-1-yl)nona-2,4,6,8-tetraenamide] |  | 124 to 126 °C |  |  |  |  |  |  |  |  |  |  |  |
| CC1=C(/C=C/C(C)=C/C=C/C(C)=C\C(=O)Nc2ccccc2)C(C)(C)CC=C1c1cncnc1 [Compound 38, (2Z,4E,6E,8E)-3,7-dimethyl-N-phenyl-9-(2,6,6-trimethyl-3-(pyrimidin-5-yl)cyclohexa-1,3-dien-1-yl)nona-2,4,6,8-tetraenamide] | 22.9 µM | 105 to 107 °C | 26.9 µM | 31 µM | 7.01 µM |  |  |  |  |  |  |  |  |

Continued by falling IC50 [1], values first:

| IC50 [1] | melting point | IC50 [2] | IC50 [3] | IC50 [4] | IC50 [5] | IC50 [6] | IC50 [7] | fold more potent than Compound 16 (GI50, MCF-7) ([4]; versus Compound 16) | IC50 [11] | Compound | IC50 [8] | IC50 [9] | IC50 [10] |
| --- | --- | --- | --- | --- | --- | --- | --- | --- | --- | --- | --- | --- | --- |
| 7.24 µM |  | 5.88 µM | 10.7 µM | 9.77 µM |  |  |  |  | 5.88 to 10.7 µM | CC1=C(/C=C/C(C)=C/C=C/C(C)=C\C(=O)NCc2ccccc2)C(C)(C)CCC1n1ccnc1 (stereo not drawn) [Compound 21, (2Z,4E,6E,8E)-9-(3-(1H-imidazol-1-yl)-2,6,6-trimethylcyclohex-1-en-1-yl)-N-benzyl-3,7-dimethylnona-2,4,6,8-tetraenamide] |  |  |  |
| 6.83 µM |  | 13.1 µM | 3.89 µM | 1.99 µM | 11.7 µM | 3.54 µM | 3.89 µM |  |  | CC1=C(/C=C/C(C)=C/C=C/C(C)=C\C(=O)Nc2ccc(O)cc2)C(C)(C)CCC1n1ccnc1 (stereo not drawn) [Compound 17, (2Z,4E,6E,8E)-9-(3-(1H-imidazol-1-yl)-2,6,6-trimethylcyclohex-1-en-1-yl)-N-(4-hydroxyphenyl)-3,7-dimethylnona-2,4,6,8-tetraenamide] |  |  |  |
| 6.02 µM |  | 11.1 µM | 3.98 µM | 4.65 µM |  |  |  |  |  | CC1=C(/C=C/C(C)=C/C=C/C(C)=C/C(=O)Nc2ccc(O)cc2)C(C)(C)CCC1 [Compound 4-HPR, N-(4-hydroxyphenyl) retinamide, reference compound] | 3.23 µM | 3.54 µM | 2.69 µM |
| 4.57 µM |  | 4.95 µM | 25.1 µM | 0.4 µM | 30.2 µM | 3.89 µM |  | ~4.8 fold |  | CC1=C(/C=C/C(C)=C/C=C/C(C)=C\C(=O)Nc2ccc(F)cc2)C(C)(C)CCC1n1ccnc1 (stereo not drawn) [Compound 19, (2Z,4E,6E,8E)-9-(3-(1H-imidazol-1-yl)-2,6,6-trimethylcyclohex-1-en-1-yl)-N-(4-fluorophenyl)-3,7-dimethylnona-2,4,6,8-tetraenamide] |  |  |  |
| 3.03 µM |  | 4.67 µM | 3.89 µM | 1.09 µM | 15.5 µM | 3.23 µM | 2.23 µM |  |  | CC1=C(/C=C/C(C)=C/C=C/C(C)=C\C(=O)Nc2ccccc2O)C(C)(C)CCC1n1ccnc1 (stereo not drawn) [Compound 18, (2Z,4E,6E,8E)-9-(3-(1H-imidazol-1-yl)-2,6,6-trimethylcyclohex-1-en-1-yl)-N-(2-hydroxyphenyl)-3,7-dimethylnona-2,4,6,8-tetraenamide] |  |  |  |
| 2.45 µM |  | 1.65 µM | 5.5 µM | 1.81 µM |  |  |  |  |  | CC1=C(/C=C/C(C)=C/C=C/C(C)=C\C(=O)NCc2cccc(F)c2)C(C)(C)CCC1n1ccnc1 (stereo not drawn) [Compound 24, (2Z,4E,6E,8E)-9-(3-(1H-imidazol-1-yl)-2,6,6-trimethylcyclohex-1-en-1-yl)-N-(3-fluorobenzyl)-3,7-dimethylnona-2,4,6,8-tetraenamide] |  |  |  |
| 2.45 µM | 93 to 95 °C | 1.41 µM | 5.5 µM | 1.93 µM |  |  |  |  |  | CC1=C(/C=C/C(C)=C/C=C/C(C)=C\C(=O)NCc2ccc(F)cc2)C(C)(C)CCC1n1ccnc1 (stereo not drawn) [Compound 23, (2Z,4E,6E,8E)-9-(3-(1H-imidazol-1-yl)-2,6,6-trimethylcyclohex-1-en-1-yl)-N-(4-fluorobenzyl)-3,7-dimethylnona-2,4,6,8-tetraenamide] |  |  |  |
